Laboratory results reported in article PMC5698704 (Chemmedchem, 2017).
“And” between values parts separate entries of the source, which are not always exact repeats. Equal values may be shown once.

Legend:
rat hepatocytes = assay: Metabolic stability in rat hepatocytes; format: in vitro ADME; conditions: predicted blood clearance from rat hepatocytes, 1 μM
CDK2/cyclinE(h) = CDK2/cyclinE(h) (Homo sapiens, UniProt P24941); assay: Merck Millipore KinaseProfiler; format: biochemical; conditions: IC50 CDK2/CycE(h), Millipore panel, 10 µM ATP
[1] = system: CYP1A2, CYP2C8, CYP2C9, CYP2D6, CYP3A4; assay: CYP inhibition in human liver microsomes; format: in vitro ADME
CDK6/cyclinD3(h) = CDK6/cyclinD3(h) (Homo sapiens, UniProt Q00534); assay: Merck Millipore KinaseProfiler; format: biochemical
CDK6/cyclinD3(h), sequence (Q00534 whole entry): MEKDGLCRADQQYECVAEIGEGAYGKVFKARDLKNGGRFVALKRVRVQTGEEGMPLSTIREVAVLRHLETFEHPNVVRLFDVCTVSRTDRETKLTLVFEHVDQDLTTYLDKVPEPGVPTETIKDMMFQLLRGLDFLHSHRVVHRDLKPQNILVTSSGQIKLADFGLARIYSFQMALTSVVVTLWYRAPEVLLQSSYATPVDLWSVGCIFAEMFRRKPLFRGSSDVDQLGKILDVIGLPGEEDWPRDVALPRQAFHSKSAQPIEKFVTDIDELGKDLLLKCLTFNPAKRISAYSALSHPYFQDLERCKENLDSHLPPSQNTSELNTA
CDK6/cyclinD3(h), sequence (P30281 whole entry partner): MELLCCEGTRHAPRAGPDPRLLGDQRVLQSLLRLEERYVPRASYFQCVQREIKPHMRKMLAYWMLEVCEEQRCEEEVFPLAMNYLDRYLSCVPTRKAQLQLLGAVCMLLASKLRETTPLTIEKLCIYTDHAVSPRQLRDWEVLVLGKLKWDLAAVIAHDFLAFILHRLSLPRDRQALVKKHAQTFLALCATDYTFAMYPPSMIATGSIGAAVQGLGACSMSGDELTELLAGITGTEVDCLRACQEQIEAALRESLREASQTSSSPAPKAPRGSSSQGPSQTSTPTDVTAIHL

CDK7/cyclinH/MAT1(h) = CDK7/cyclinH/MAT1(h) (Homo sapiens, UniProt P50613); assay: Merck Millipore KinaseProfiler; format: biochemical
CDK7/cyclinH/MAT1(h), sequence (P50613 whole entry): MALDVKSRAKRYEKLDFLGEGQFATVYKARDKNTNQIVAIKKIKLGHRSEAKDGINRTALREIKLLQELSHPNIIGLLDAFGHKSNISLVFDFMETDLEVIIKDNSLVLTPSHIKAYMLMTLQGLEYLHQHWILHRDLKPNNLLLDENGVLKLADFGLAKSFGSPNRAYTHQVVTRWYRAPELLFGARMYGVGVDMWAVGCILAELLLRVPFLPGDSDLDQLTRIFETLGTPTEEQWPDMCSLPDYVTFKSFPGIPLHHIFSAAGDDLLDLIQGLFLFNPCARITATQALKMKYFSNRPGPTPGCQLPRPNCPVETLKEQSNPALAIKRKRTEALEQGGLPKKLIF
CDK7/cyclinH/MAT1(h), sequence (P51946 whole entry partner): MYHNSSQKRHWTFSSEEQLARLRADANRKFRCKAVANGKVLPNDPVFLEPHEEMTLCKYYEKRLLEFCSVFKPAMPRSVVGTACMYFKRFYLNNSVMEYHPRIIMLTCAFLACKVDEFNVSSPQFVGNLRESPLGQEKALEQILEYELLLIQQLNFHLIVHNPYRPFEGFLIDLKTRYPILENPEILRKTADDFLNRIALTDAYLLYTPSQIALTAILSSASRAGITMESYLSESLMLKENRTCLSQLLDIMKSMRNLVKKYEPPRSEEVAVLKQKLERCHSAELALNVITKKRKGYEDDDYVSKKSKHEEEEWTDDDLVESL
CDK7/cyclinH/MAT1(h), sequence (P51948 whole entry partner): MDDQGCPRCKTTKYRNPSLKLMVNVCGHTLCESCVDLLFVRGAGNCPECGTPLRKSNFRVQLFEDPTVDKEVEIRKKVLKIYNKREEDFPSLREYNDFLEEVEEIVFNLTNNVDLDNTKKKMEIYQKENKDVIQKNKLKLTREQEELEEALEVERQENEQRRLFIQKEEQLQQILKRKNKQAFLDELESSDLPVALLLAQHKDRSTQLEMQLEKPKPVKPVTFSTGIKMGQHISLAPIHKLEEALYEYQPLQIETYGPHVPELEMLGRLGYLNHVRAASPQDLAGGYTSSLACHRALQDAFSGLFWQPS

[2] = Blood/plasma partitioning in rats; format: in vitro ADME; conditions: rat, blood and plasma
CYP3A4 = assay: CYP induction in cultured human hepatocytes; format: in vitro ADME
HeLa cells = assay: Proliferation assay HeLa; format: cell-based; conditions: Homo sapiens, 96 h, read-out: HeLa IC50
CDK3/cyclinE(h) = CDK3/cyclinE(h) (Homo sapiens, UniProt Q00526); assay: Merck Millipore KinaseProfiler; format: biochemical; conditions: IC50 CDK3/CycE(h), Millipore panel, 10 µM ATP
CDK3/cyclinE(h), sequence (Q00526 whole entry): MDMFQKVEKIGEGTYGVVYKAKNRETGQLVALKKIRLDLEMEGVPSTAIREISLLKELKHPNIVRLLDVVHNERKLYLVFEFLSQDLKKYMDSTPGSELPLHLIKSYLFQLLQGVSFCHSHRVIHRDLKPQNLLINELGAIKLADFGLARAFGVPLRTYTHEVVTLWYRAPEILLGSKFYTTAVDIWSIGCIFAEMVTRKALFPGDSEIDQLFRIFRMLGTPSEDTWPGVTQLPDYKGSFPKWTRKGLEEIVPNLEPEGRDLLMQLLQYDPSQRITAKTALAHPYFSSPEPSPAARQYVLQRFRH
CDK3/cyclinE(h), sequence (P24864 whole entry, further chain): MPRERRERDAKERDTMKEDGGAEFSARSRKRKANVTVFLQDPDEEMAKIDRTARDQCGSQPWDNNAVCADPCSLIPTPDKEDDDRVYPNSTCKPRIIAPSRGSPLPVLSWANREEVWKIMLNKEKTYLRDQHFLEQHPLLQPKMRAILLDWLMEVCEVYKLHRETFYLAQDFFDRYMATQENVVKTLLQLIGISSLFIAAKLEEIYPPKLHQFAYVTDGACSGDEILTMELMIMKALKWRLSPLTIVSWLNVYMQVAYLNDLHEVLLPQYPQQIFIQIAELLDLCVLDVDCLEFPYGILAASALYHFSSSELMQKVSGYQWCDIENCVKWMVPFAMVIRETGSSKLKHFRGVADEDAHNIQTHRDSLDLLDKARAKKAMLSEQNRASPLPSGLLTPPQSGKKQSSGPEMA

MOLM‐13 cells = assay: Proliferation assay MOLM‐13; format: cell-based; conditions: Homo sapiens, MOLM-13, 96 h, read-out: MOLM‐13 IC50
CDK5/p35(h) = CDK5/p35(h) (Homo sapiens, UniProt Q00535); assay: Merck Millipore KinaseProfiler; format: biochemical; conditions: Millipore panel, 10 µM ATP
CDK5/p35(h), sequence (Q00535 whole entry): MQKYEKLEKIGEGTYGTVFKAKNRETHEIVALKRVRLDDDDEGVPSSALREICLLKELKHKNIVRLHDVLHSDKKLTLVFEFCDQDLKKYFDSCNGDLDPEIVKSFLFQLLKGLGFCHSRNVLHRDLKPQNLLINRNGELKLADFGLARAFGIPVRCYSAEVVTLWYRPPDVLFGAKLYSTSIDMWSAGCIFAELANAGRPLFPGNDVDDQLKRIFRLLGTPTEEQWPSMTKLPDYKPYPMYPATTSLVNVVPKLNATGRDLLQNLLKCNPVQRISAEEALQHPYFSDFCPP
CDK5/p35(h), sequence (Q15078 whole entry partner): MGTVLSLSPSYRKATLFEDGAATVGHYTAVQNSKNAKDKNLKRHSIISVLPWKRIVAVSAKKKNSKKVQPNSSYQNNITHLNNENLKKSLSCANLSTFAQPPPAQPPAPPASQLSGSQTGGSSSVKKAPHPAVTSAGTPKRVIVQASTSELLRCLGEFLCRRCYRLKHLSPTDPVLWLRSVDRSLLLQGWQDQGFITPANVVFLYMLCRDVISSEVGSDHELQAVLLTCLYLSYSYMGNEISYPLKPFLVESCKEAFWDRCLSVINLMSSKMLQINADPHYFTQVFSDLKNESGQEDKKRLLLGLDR

CDK2/CycE = CDK2/CycE kinase assay; format: biochemical, human; conditions: ratio of IC50 values CDK2/CDK9, in-house assays
CDK1/cyclinB(h) = CDK1/cyclinB(h) (Homo sapiens, UniProt P06493); assay: Merck Millipore KinaseProfiler; format: biochemical; conditions: IC50 CDK1/CycB(h), Millipore panel, 10 µM ATP
CDK1/cyclinB(h), sequence (P14635 whole entry): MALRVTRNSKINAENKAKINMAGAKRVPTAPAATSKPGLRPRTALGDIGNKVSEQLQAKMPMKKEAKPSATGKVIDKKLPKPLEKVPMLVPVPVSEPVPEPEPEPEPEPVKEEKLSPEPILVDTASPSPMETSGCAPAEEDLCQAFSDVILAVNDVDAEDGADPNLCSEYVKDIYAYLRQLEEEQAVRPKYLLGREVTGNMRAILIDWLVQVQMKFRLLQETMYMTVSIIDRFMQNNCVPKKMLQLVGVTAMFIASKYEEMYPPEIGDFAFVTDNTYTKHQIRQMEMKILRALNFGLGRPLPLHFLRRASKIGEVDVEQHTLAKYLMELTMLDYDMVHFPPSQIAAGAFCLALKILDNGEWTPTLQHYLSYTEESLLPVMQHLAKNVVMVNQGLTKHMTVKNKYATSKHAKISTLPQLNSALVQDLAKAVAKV
CDK1/cyclinB(h), sequence (P06493 whole entry): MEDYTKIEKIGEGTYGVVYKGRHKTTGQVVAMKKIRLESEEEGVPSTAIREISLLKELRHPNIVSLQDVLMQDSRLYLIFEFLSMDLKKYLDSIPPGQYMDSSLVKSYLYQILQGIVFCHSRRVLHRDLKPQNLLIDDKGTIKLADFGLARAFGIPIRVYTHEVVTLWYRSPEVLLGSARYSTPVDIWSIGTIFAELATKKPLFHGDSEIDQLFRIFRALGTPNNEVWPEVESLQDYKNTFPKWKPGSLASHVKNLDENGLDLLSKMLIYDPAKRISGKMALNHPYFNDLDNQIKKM

[3] = Metabolic stability in rat liver microsomes; format: in vitro ADME; conditions: predicted blood clearance from rat liver microsomes
[4] = Caco‐2 permeability assay; format: in vitro ADME; conditions: human, Caco-2, pH 7.2
CDK9/cyclin T1(h) = CDK9/cyclin T1(h) (Homo sapiens, UniProt P50750); assay: Merck Millipore KinaseProfiler; format: biochemical
CDK9/cyclin T1(h), sequence (P50750 whole entry): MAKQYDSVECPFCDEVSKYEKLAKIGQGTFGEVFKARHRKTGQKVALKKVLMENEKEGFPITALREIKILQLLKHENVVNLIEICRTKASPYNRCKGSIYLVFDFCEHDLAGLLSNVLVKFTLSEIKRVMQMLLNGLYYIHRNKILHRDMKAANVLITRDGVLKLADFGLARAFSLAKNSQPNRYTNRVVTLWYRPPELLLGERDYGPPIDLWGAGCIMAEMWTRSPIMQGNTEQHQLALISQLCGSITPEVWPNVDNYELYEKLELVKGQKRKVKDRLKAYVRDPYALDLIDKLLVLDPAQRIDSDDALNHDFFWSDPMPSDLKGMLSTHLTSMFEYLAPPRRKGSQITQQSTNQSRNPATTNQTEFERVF
CDK9/cyclin T1(h), sequence (O60563 whole entry partner): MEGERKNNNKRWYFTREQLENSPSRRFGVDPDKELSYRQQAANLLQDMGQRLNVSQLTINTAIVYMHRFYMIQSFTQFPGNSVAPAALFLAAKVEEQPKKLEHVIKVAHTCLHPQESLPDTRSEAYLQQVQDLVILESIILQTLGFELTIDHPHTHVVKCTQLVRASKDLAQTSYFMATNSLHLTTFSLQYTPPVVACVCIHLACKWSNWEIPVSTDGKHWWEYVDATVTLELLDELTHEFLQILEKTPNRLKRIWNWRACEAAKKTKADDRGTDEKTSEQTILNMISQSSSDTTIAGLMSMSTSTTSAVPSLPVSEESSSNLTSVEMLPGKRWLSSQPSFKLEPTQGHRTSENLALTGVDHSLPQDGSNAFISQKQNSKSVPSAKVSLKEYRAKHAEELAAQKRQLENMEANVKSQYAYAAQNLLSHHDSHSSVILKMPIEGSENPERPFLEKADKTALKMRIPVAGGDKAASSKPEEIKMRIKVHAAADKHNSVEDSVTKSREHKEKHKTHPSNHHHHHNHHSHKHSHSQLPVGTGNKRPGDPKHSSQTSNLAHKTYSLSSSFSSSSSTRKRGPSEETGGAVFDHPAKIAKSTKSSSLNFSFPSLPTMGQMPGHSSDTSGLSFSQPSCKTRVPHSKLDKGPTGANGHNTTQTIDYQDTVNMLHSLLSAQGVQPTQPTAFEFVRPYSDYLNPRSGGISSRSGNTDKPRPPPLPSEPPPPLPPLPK

[5] = Equilibrium shake flask solubility assay; format: physicochemical; conditions: aqueous solubility, phosphate buffer pH 6.5, 24 h; solid state not characterized
[6] = MV4‐11 human AML xenograft model in rats; format: in vivo, rat; conditions: female, athymic nude, rat, in vivo, po, 12 mg kg^−1
MV4‐11 human AML model = assay: MV4‐11 human AML xenograft model in rats; format: in vivo, rat
MOLM‐13 human AML model = assay: MOLM‐13 human AML xenograft model in mice; format: in vivo, mouse; conditions: throughout the study, all BAY 1143572 regimens
Flt3(h) = target: T1, Flt3(h) (Homo sapiens, UniProt P36888); assay: Merck Millipore KinaseProfiler; format: biochemical; conditions: Merck Millipore KinaseProfiler panel
T1 sequence (P36888 27-993): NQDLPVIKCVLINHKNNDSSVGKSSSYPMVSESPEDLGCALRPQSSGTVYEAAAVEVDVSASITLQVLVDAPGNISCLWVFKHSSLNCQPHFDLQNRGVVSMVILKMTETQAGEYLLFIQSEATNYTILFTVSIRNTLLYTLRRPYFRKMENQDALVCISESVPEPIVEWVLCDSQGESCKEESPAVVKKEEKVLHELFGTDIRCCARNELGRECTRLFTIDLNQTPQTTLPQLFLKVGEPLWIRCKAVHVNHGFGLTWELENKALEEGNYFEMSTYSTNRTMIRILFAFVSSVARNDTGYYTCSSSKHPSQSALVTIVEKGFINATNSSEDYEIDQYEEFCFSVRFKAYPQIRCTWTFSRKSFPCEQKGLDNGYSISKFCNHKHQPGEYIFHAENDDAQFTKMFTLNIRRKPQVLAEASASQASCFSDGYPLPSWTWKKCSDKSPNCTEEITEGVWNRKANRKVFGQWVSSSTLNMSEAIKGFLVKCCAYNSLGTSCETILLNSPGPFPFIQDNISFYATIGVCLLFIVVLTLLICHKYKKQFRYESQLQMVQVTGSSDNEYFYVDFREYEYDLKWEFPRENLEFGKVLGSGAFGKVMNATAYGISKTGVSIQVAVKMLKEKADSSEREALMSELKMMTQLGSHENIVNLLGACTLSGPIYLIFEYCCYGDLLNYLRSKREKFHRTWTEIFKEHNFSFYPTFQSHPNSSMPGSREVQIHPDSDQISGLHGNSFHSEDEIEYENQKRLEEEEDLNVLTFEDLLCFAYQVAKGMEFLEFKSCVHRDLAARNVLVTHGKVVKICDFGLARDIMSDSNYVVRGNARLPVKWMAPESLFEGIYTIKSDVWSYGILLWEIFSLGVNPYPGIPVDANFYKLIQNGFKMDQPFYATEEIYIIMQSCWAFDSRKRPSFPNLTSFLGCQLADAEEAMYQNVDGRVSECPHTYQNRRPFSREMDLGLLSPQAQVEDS

MV4‐11 cells = assay: Antiproliferative activity MV4‐11; format: cell-based; conditions: Homo sapiens, MV4-11, read-out: MV4‐11 IC50

COc1cc(F)ccc1-c1ncnc(Nc2cccc(CS(N)(=O)=O)c2)n1 [BAY‐958, 1‐(3‐{[4‐(4‐Fluoro‐2‐methoxyphenyl)‐1,3,5‐triazin‐2‐yl]amino}phenyl)methanesulfonamide]
CLb, ratHep (rat hepatocytes): 5.5 mL/min/kg | IC50 (CDK2/cyclinE(h)): 470 nM | IC50 [1]: > 20000 nM | IC50 (CDK6/cyclinD3(h)): 4400 nM | IC50 (CDK7/cyclinH/MAT1(h)): > 10000 nM | blood plasma ratio [2]: 3 | Induction of CYP3A4 in vitro (CYP3A4): not observed | IC50 (HeLa cells): 1000 nM | IC50 (CDK3/cyclinE(h)): 570 nM | IC50 (MOLM‐13 cells): 280 nM | IC50 (CDK5/p35(h)): 800 nM | CLb, rat in vivo, i.v. (Rat PK study in vivo): 8.3 mL/min/kg and 8.33 mL/min/kg | half-life (Rat PK study in vivo; male, Wistar, plasma, iv): 42 min | F, rat in vivo, p.o. (Rat PK study in vivo; oral bioavailability): 10% | Selectivity vs. CDK2, ratio of IC50 values (CDK2/CycE): 98 | IC50 (CDK1/cyclinB(h)): 690 nM | CLb, ratLM [3]: 8 mL/min/kg | efflux ratio at 2 h, 2 μM [4]: 15 | IC50 (CDK9/cyclin T1(h)): 5 nM | selectivity vs. other CDKs (CDK9/cyclin T1(h); Millipore panel, relative to CDK9/CycT1 IC50): > 90

COc1cc(F)ccc1-c1ncnc(Nc2cccc(C[S@](C)(=N)=O)c2)n1 [BAY 1143572, (R)‐4‐(4‐Fluoro‐2‐methoxyphenyl)‐N‐{3‐[(S‐methylsulfonimidoyl)methyl]phenyl}‐1,3,5‐triazin‐2‐amine]
Sw, pH 6.5 [5]: 479 mg L^−1 | MTD at 14 days [6]: 12 mg/kg | tumor response (MV4‐11 human AML model; 12 mg kg^−1 daily oral for 14 days): almost complete tumor remission | tumor regrowth at the conclusion of the experiment (MV4‐11 human AML model; 57 days after initial inoculation, after 12 mg kg^−1 daily for 14 days): no tumor regrowth in nine of the 12 test animals | IC50 [1]: > 20000 nM | mean body weight reduction (MOLM‐13 human AML model): less than 10% | Induction of CYP3A4 in vitro (CYP3A4): not observed | IC50 (HeLa cells): 920 nM | IC50 (CDK3/cyclinE(h)): 890 nM | IC50 (MOLM‐13 cells): 310 nM | activity against Flt3 (Flt3(h)): did not show relevant activity | CLb, rat in vivo, i.v. (Rat PK study in vivo): 18.3 mL/min/kg | IC50 (MV4‐11 cells): 890 nM
